# Assay results: US11464763B2, “Parasiticidal compositions comprising an isoxazoline active agent, methods and uses thereof” (BOEHRINGER INGELHEIM ANIMAL HEALTH USA INC., priority 2011, dated 2022)
# Columns and labels:
# Ctenocephalides felis = test: Long lasting spot-on efficacy against Ctenocephalides felis fleas in cats (Example 9); type: in vivo
# Method: The efficacy of spot-on compositions comprising Cmpd. A in DMI at different doses against Ctenocephalides felis fleas in cats was studied. Four treatment groups were formed with five cats per treatment group: Group 1—untreated control; Group 2—Compound A at 5.0% (w/v) in DMI to deliver a dose of 5 mg/kg; Group 3—Compound A at a concentration of 10.0% (w/v) in DMI to deliver a dose of 10 mg/kg; and Group 4—Compound A at a concentration of 15.0% (w/v) in DMI to deliver a dose of 15 mg/kg. Treatment was administered once on Day 0. The cats were each infested with approximately 100 C. felis fleas at each time point evaluated.
# Cats in all treatment groups were infested on Days −1, 0 (approx. 12 h following treatment), 7, 28, 49, 70, 91, 105, 119 and 133. Cats were also infested on Days 126 and 140 (Treatment Groups 1 and 2); Days 147, 154, 155, 161, 168 and 175 (Treatment Groups 1, 3 and 4); Days 182, 189 and 197 (Treatment Groups 1 and 4). After each infestation, fleas were removed and counted approximately 48 hours (±3 hours) for most time points.
# Linognathus vituli = test: Pour-on efficacy against Linognathus vituli (sucking lice) in cattle (Example 16); type: in vivo
# Method: The efficacy of two pour-on formulations of the invention comprising isoxazoline Compound A at doses of 2.5 mg/kg and 10 mg/kg were tested against natural and induced infestations with Linognathus vituli (sucking lice) in cattle compared with an untreated control. Four healthy head of cattle weighing between 100 to 300 kg were used in each study group. Cattle in Group 1 were untreated (control). Cattle in Group 2 were treated on Day 0 with a pour-on formulation comprising Compound A at a concentration of 2.5% (w/v) in DES at a dose of 2.5 mg/kg; and cattle in Group 3 were treated on Day 0 with a pour-on formulation comprising Compound A at a concentration of 10% (w/v) in DES at a dose of 10 mg/kg. The formulation was applied by measuring the required amount of the solution into a marked disposable syringe and applying the material evenly along the mid-line of the back of each animal from the withers to the tail head.
# Live lice (adults plus nymphs) were counted on days 2, 7, 14, 21, 28, 35, 42, 49 and 56 by counting lice on six selected sites approximately 5 cm×15 cm on the body surface of the animal by direct examination. In the absence of lice on the selected sites, a thorough body search was conducted. The total louse counts per animal were determined by summation of the live louse numbers at each site per animal. Tables 17A and 17B below show the efficacy of the two pour-on formulations against Linognathus vituli over 56 days. As the tables show, both pour-on formulations were efficacious through at least day 56 of the study with 100% efficacy observed starting day 7. Efficacy on day 2 of the study was greater than 90% in each of the study groups. The long lasting efficacy against Linognathus vituli from one topical treatment is unexpected and surprising.
structure (smiles),measurement,setting,value
"O=C(CNC(=O)c1ccc(C2=NOC(c3cc(Cl)cc(C(F)(F)F)c3)(C(F)(F)F)C2)c2ccccc12)NCC(F)(F)F (stereo not shown) [Compound A, 4-[5-[3-chloro-5-(trifluoromethyl)phenyl]-4,5-dihydro-5-(trifluoromethyl)-3-isoxazolyl]-N-[2-oxo-2-[(2,2,2-trifluoroethyl)amino]ethyl]-1-naphthalanecarboxamide]",efficacy against fleas,"Ctenocephalides felis; Group 2 (5 mg/kg), up to Day 121",90%
same,% Reduction Fleas,"Ctenocephalides felis; Group 2: 5.0% in DMI, 5 mg/kg, Day 0 (12 hr)",61.1%
same,% Reduction Fleas,"Ctenocephalides felis; Group 2: 5.0% in DMI, 5 mg/kg, Day 2",100.0%
same,% Reduction Fleas,"Ctenocephalides felis; Group 2: 5.0% in DMI, 5 mg/kg, Day 9",100.0%
same,% Reduction Fleas,"Ctenocephalides felis; Group 2: 5.0% in DMI, 5 mg/kg, Day 30",100.0%
same,% Reduction Fleas,"Ctenocephalides felis; Group 2: 5.0% in DMI, 5 mg/kg, Day 51",100.0%
same,% Reduction Fleas,"Ctenocephalides felis; Group 2: 5.0% in DMI, 5 mg/kg, Day 72",100.0%
same,% Reduction Fleas,"Ctenocephalides felis; Group 2: 5.0% in DMI, 5 mg/kg, Day 93",100.0%
same,% Reduction Fleas,"Ctenocephalides felis; Group 2: 5.0% in DMI, 5 mg/kg, Day 107",100.0%
same,% Reduction Fleas,"Ctenocephalides felis; Group 2: 5.0% in DMI, 5 mg/kg, Day 121",92.3%
same,% Reduction Fleas,"Ctenocephalides felis; Group 2: 5.0% in DMI, 5 mg/kg, Day 128",89.1%
same,% Reduction Fleas,"Ctenocephalides felis; Group 2: 5.0% in DMI, 5 mg/kg, Day 135",88.3%
same,% Reduction Fleas,"Ctenocephalides felis; Group 2: 5.0% in DMI, 5 mg/kg, Day 142",80.0%
same,efficacy against fleas,"Ctenocephalides felis; Group 3 (10 mg/kg), up to Day 163",90%
same,% Reduction Fleas,"Ctenocephalides felis; Group 3: 10.0% in DMI, 10 mg/kg, Day 0 (12 hr)",95.4%
same,% Reduction Fleas,"Ctenocephalides felis; Group 3: 10.0% in DMI, 10 mg/kg, Day 2",100.0%
same,% Reduction Fleas,"Ctenocephalides felis; Group 3: 10.0% in DMI, 10 mg/kg, Day 9",100.0%
same,% Reduction Fleas,"Ctenocephalides felis; Group 3: 10.0% in DMI, 10 mg/kg, Day 30",100.0%
same,% Reduction Fleas,"Ctenocephalides felis; Group 3: 10.0% in DMI, 10 mg/kg, Day 51",100.0%
same,% Reduction Fleas,"Ctenocephalides felis; Group 3: 10.0% in DMI, 10 mg/kg, Day 72",100.0%
same,% Reduction Fleas,"Ctenocephalides felis; Group 3: 10.0% in DMI, 10 mg/kg, Day 93",100.0%
same,% Reduction Fleas,"Ctenocephalides felis; Group 3: 10.0% in DMI, 10 mg/kg, Day 107",100.0%
same,% Reduction Fleas,"Ctenocephalides felis; Group 3: 10.0% in DMI, 10 mg/kg, Day 121",100.0%
same,% Reduction Fleas,"Ctenocephalides felis; Group 3: 10.0% in DMI, 10 mg/kg, Day 135",99.8%
same,% Reduction Fleas,"Ctenocephalides felis; Group 3: 10.0% in DMI, 10 mg/kg, Day 149",99.5%
same,% Reduction Fleas,"Ctenocephalides felis; Group 3: 10.0% in DMI, 10 mg/kg, Day 155",50.0%
same,% Reduction Fleas,"Ctenocephalides felis; Group 3: 10.0% in DMI, 10 mg/kg, Day 157",98.1%
same,% Reduction Fleas,"Ctenocephalides felis; Group 3: 10.0% in DMI, 10 mg/kg, Day 163",94.5%
same,% Reduction Fleas,"Ctenocephalides felis; Group 3: 10.0% in DMI, 10 mg/kg, Day 170",87.8%
same,% Reduction Fleas,"Ctenocephalides felis; Group 3: 10.0% in DMI, 10 mg/kg, Day 177",70.8%
same,efficacy against fleas,"Ctenocephalides felis; Group 4 (15 mg/kg), up to Day 191",90%
same,% Reduction Fleas,"Ctenocephalides felis; Group 4: 15.0% in DMI, 15 mg/kg, Day 0 (12 hr)",85.3%
same,% Reduction Fleas,"Ctenocephalides felis; Group 4: 15.0% in DMI, 15 mg/kg, Day 2",100.0%
same,% Reduction Fleas,"Ctenocephalides felis; Group 4: 15.0% in DMI, 15 mg/kg, Day 9",100.0%
same,% Reduction Fleas,"Ctenocephalides felis; Group 4: 15.0% in DMI, 15 mg/kg, Day 30",100.0%
same,% Reduction Fleas,"Ctenocephalides felis; Group 4: 15.0% in DMI, 15 mg/kg, Day 51",100.0%
same,% Reduction Fleas,"Ctenocephalides felis; Group 4: 15.0% in DMI, 15 mg/kg, Day 72",100.0%
same,% Reduction Fleas,"Ctenocephalides felis; Group 4: 15.0% in DMI, 15 mg/kg, Day 93",100.0%
same,% Reduction Fleas,"Ctenocephalides felis; Group 4: 15.0% in DMI, 15 mg/kg, Day 107",100.0%
same,% Reduction Fleas,"Ctenocephalides felis; Group 4: 15.0% in DMI, 15 mg/kg, Day 121",100.0%
same,% Reduction Fleas,"Ctenocephalides felis; Group 4: 15.0% in DMI, 15 mg/kg, Day 135",100.0%
same,% Reduction Fleas,"Ctenocephalides felis; Group 4: 15.0% in DMI, 15 mg/kg, Day 149",100.0%
same,% Reduction Fleas,"Ctenocephalides felis; Group 4: 15.0% in DMI, 15 mg/kg, Day 155",78.0%
same,% Reduction Fleas,"Ctenocephalides felis; Group 4: 15.0% in DMI, 15 mg/kg, Day 157",100.0%
same,% Reduction Fleas,"Ctenocephalides felis; Group 4: 15.0% in DMI, 15 mg/kg, Day 163",100.0%
same,% Reduction Fleas,"Ctenocephalides felis; Group 4: 15.0% in DMI, 15 mg/kg, Day 170",96.2%
same,% Reduction Fleas,"Ctenocephalides felis; Group 4: 15.0% in DMI, 15 mg/kg, Day 177",94.8%
same,% Reduction Fleas,"Ctenocephalides felis; Group 4: 15.0% in DMI, 15 mg/kg, Day 184",95.7%
same,% Reduction Fleas,"Ctenocephalides felis; Group 4: 15.0% in DMI, 15 mg/kg, Day 191",90.6%
same,% Reduction Fleas,"Ctenocephalides felis; Group 4: 15.0% in DMI, 15 mg/kg, Day 199",79.2%
same,% Reduction,"Linognathus vituli; Group 2: pour-on 2.5% in DES, 2.5 mg/kg, Day 2",92%
same,% Reduction,"Linognathus vituli; Group 2: pour-on 2.5% in DES, 2.5 mg/kg, Day 7",100%
same,% Reduction,"Linognathus vituli; Group 2: pour-on 2.5% in DES, 2.5 mg/kg, Day 14",100%
same,% Reduction,"Linognathus vituli; Group 2: pour-on 2.5% in DES, 2.5 mg/kg, Day 21",100%
same,% Reduction,"Linognathus vituli; Group 2: pour-on 2.5% in DES, 2.5 mg/kg, Day 28",100%
same,% Reduction,"Linognathus vituli; Group 3: pour-on 10% in DES, 10 mg/kg, Day 2",98%
same,% Reduction,"Linognathus vituli; Group 3: pour-on 10% in DES, 10 mg/kg, Day 7",100%
same,% Reduction,"Linognathus vituli; Group 3: pour-on 10% in DES, 10 mg/kg, Day 14",100%
same,% Reduction,"Linognathus vituli; Group 3: pour-on 10% in DES, 10 mg/kg, Day 21",100%
same,% Reduction,"Linognathus vituli; Group 3: pour-on 10% in DES, 10 mg/kg, Day 28",100%
same,efficacy against Linognathus vituli,"Linognathus vituli; both pour-on formulations, starting day 7 through at least day 56",100%
same,efficacy against Linognathus vituli,"Linognathus vituli; each of the study groups, day 2",greater than 90%
same,% Reduction,"Linognathus vituli; live lice counts, Group 2: pour-on 2.5% (w/v) in DES, 2.5 mg/kg, Day 35",92%
same,% Reduction,"Linognathus vituli; live lice counts, Group 2: pour-on 2.5% (w/v) in DES, 2.5 mg/kg, Day 42",100%
same,% Reduction,"Linognathus vituli; live lice counts, Group 2: pour-on 2.5% (w/v) in DES, 2.5 mg/kg, Day 49",100%
same,% Reduction,"Linognathus vituli; live lice counts, Group 2: pour-on 2.5% (w/v) in DES, 2.5 mg/kg, Day 56",100%
same,% Reduction,"Linognathus vituli; live lice counts, Group 3: pour-on 10% (w/v) in DES, 10 mg/kg, Day 35",98%
same,% Reduction,"Linognathus vituli; live lice counts, Group 3: pour-on 10% (w/v) in DES, 10 mg/kg, Day 42",100%
same,% Reduction,"Linognathus vituli; live lice counts, Group 3: pour-on 10% (w/v) in DES, 10 mg/kg, Day 49",100%
same,% Reduction,"Linognathus vituli; live lice counts, Group 3: pour-on 10% (w/v) in DES, 10 mg/kg, Day 56",100%
